Results reported in ChEMBL document CHEMBL5131391, “One-pot three-component synthesis of novel pyrazolo[3,4-b]pyridines as potent antileukemic agents” (Eur J Med Chem, 2022).
Calls of active or inactive are those of the source. The rule behind the calls is not given here.

Experiments:
U-251 [1] = assay: Cytostatic activity in human U-251 cells assessed as tumor growth inhibition measured after 48 hrs by NCI protocol based SRB assay; type: functional
OVCAR-3 = assay: Antiproliferative activity against human OVCAR-3 cells assessed as growth inhibition measured after 48 hrs by NCI protocol based SRB assay; type: functional
SK-MEL-2 = assay: Antiproliferative activity against human SK-MEL-2 cells assessed as growth inhibition measured after 48 hrs by NCI protocol based SRB assay; type: functional
Malme-3M = assay: Antiproliferative activity against human Malme-3M cells assessed as growth inhibition measured after 48 hrs by NCI protocol based SRB assay; type: functional
NCI/ADR-RES [2] = assay: Cytostatic activity in human NCl/ADR-RES cells assessed as tumor growth inhibition measured after 48 hrs by NCI protocol based SRB assay; type: functional
MOLT-4 [3] = assay: Cytostatic activity in human MOLT-4 cells assessed as tumor growth inhibition measured after 48 hrs by NCI protocol based SRB assay; type: functional
CCRF-CEM [4] = assay: Antiproliferative activity against human CCRF-CEM cells assessed as growth inhibition measured after 48 hrs by NCI protocol based SRB assay; type: functional
SK-OV-3 = assay: Antiproliferative activity against human SK-OV-3 cells assessed as growth inhibition measured after 48 hrs by NCI protocol based SRB assay; type: functional
OVCAR-5 = assay: Cytostatic activity in human OVCAR-5 cells assessed as tumor growth inhibition measured after 48 hrs by NCI protocol based SRB assay; type: functional
MDA-MB-435 = assay: Cytostatic activity in human MDA-MB-435 cells assessed as tumor growth inhibition measured after 48 hrs by NCI protocol based SRB assay; type: functional
SN12C [5] = assay: Antiproliferative activity against human SN12C cells assessed as growth inhibition measured after 48 hrs by NCI protocol based SRB assay; type: functional
NCI-H522 = assay: Cytostatic activity in human NCI-H522 cells assessed as tumor growth inhibition measured after 48 hrs by NCI protocol based SRB assay; type: functional
MDA-MB-468 = assay: Cytostatic activity in human MDA-MB-468 cells assessed as tumor growth inhibition measured after 48 hrs by NCI protocol based SRB assay; type: functional
MOLT-4 [6] = assay: Antiproliferative activity against human MOLT-4 cells assessed as growth inhibition measured after 48 hrs by NCI protocol based SRB assay; type: functional
COLO 205 = assay: Cytostatic activity in human COLO 205 cells assessed as tumor growth inhibition measured after 48 hrs by NCI protocol based SRB assay; type: functional
SK-MEL-28 = assay: Cytostatic activity in human SK-MEL-28 cells assessed as tumor growth inhibition measured after 48 hrs by NCI protocol based SRB assay; type: functional
LOX IMVI = assay: Cytostatic activity in human LOX IMVI cells assessed as tumor growth inhibition measured after 48 hrs by NCI protocol based SRB assay; type: functional
SN12C [7] = assay: Cytostatic activity in human SN12C cells assessed as tumor growth inhibition measured after 48 hrs by NCI protocol based SRB assay; type: functional
MCF7 = assay: Cytostatic activity in human MCF7 cells assessed as tumor growth inhibition measured after 48 hrs by NCI protocol based SRB assay; type: functional
UACC-62 = assay: Cytostatic activity in human UACC-62 cells assessed as tumor growth inhibition measured after 48 hrs by NCI protocol based SRB assay; type: functional
NCI-H460 = assay: Antiproliferative activity against human NCI-H460 cells assessed as growth inhibition measured after 48 hrs by NCI protocol based SRB assay; type: functional
KM12 = assay: Cytostatic activity in human KM12 cells assessed as tumor growth inhibition measured after 48 hrs by NCI protocol based SRB assay; type: functional
NCI/ADR-RES [8] = assay: Antiproliferative activity against human NCl/ADR-RES cells assessed as growth inhibition measured after 48 hrs by NCI protocol based SRB assay; type: functional
SK-MEL-5 = assay: Cytostatic activity in human SK-MEL-5 cells assessed as tumor growth inhibition measured after 48 hrs by NCI protocol based SRB assay; type: functional
UO-31 = assay: Antiproliferative activity against human UO-31 cells assessed as growth inhibition measured after 48 hrs by NCI protocol based SRB assay; type: functional
U-251 [9] = assay: Antiproliferative activity against human U-251 cells assessed as growth inhibition measured after 48 hrs by NCI protocol based SRB assay; type: functional
NCI-H226 = assay: Cytostatic activity in human NCI-H226 cells assessed as tumor growth inhibition measured after 48 hrs by NCI protocol based SRB assay; type: functional
CAKI-1 = assay: Antiproliferative activity against human CAKI-1 cells assessed as growth inhibition measured after 48 hrs by NCI protocol based SRB assay; type: functional
TK-10 = assay: Antiproliferative activity against human TK-10 cells assessed as growth inhibition measured after 48 hrs by NCI protocol based SRB assay; type: functional
HOP-62 [10] = assay: Antiproliferative activity against human HOP-62 cells assessed as growth inhibition measured after 48 hrs by NCI protocol based SRB assay; type: functional
DU-145 = assay: Antiproliferative activity against human DU-145 cells assessed as growth inhibition measured after 48 hrs by NCI protocol based SRB assay; type: functional
CCRF-CEM [11] = assay: Cytostatic activity in human CCRF-CEM cells assessed as tumor growth inhibition measured after 48 hrs by NCI protocol based SRB assay; type: functional
SR = assay: Antiproliferative activity against human SR cells assessed as growth inhibition measured after 48 hrs by NCI protocol based SRB assay; type: functional
HOP-62 [12] = assay: Cytostatic activity in human HOP-62 cells assessed as tumor growth inhibition measured after 48 hrs by NCI protocol based SRB assay; type: functional
HCT-15 = assay: Antiproliferative activity against human HCT-15 cells assessed as growth inhibition measured after 48 hrs by NCI protocol based SRB assay; type: functional
SF-268 = assay: Cytostatic activity in human SF-268 cells assessed as tumor growth inhibition measured after 48 hrs by NCI protocol based SRB assay; type: functional
RS4-11 [13] = assay: Induction of cell cycle arrest in human RS4-11 cells assessed as accumulation of cells in G2/M phase at 1.25 to 10 uM measured after 72 hrs by PI staining based flow cytometry analysis; type: functional; settings: dose 1.25-10 µM
RS4-11 [14] = assay: Downregulation of MEIS1 protein expression in human RS4-11 cells at 5 to 20 uM measured after 24 hrs by Western blot analysis; type: functional, cell-based; settings: dose 5-20 µM
RS4-11 [15] = assay: Downregulation of HOXA9 protein expression in human RS4-11 cells at 5 to 20 uM measured after 24 hrs by Western blot analysis; type: functional, cell-based; settings: dose 5-20 µM
[16] = read-out: LC50 (the source's name)

In the case of N#Cc1c(-c2ccccc2)nc2c(c(-c3ccccc3)nn2-c2ccccc2)c1-c1ccc(O)cc1, the TGI (U-251 [1]) is reported as 3.97 µM, the GI50 (OVCAR-3) is reported as 2 µM and the CC50 (OVCAR-3; [16]) is reported as 9.91 µM. It also gave a GI50 (SK-MEL-2) of 2.39 µM, a CC50 (SK-MEL-2; [16]) of 41.7 µM and a GI50 (Malme-3M) of 1.62 µM. For the same molecule, the CC50 (Malme-3M; [16]) was 9.06 µM, the TGI (NCI/ADR-RES [2]) was 5.62 µM and the TGI (MOLT-4 [3]) was 7.86 µM. For the same molecule, the GI50 (CCRF-CEM [4]) was 3.13 µM, the CC50 (CCRF-CEM [4]; [16]) was > 100 µM and the GI50 (SK-OV-3) was 2.87 µM. It also gave a CC50 (SK-OV-3; [16]) of 2.98 µM, a TGI (OVCAR-5) of 3.41 µM and a TGI (MDA-MB-435) of 3.71 µM. It also gave a GI50 (SN12C [5]) of 1.64 µM, a CC50 (SN12C [5]; [16]) of 5.63 µM and a TGI (NCI-H522) of 6.03 µM. For the same molecule, the TGI (MDA-MB-468) was 5.57 µM, the GI50 (MOLT-4 [6]) was 2.49 µM and the CC50 (MOLT-4 [6]; [16]) was > 100 µM. The TGI (COLO 205) was 6.31 µM, the TGI (SK-MEL-28) was 3.05 µM and the TGI (LOX IMVI) was 3.05 µM. For the same molecule, the TGI (SN12C [7]) was 3.04 µM, the TGI (MCF7) was 4.76 µM and the TGI (UACC-62) was 3.18 µM. It also gave a GI50 (NCI-H460) of 1.73 µM, a CC50 (NCI-H460; [16]) of 6.13 µM and a TGI (KM12) of 4.76 µM. It also gave a GI50 (NCI/ADR-RES [8]) of 2.27 µM, a CC50 (NCI/ADR-RES [8]; [16]) of 2.95 µM and a TGI (SK-MEL-5) of 3.19 µM. For the same molecule, the GI50 (UO-31) was 2.02 µM, the CC50 (UO-31; [16]) was 8.59 µM and the GI50 (U-251 [9]) was 1.63 µM. It also gave a CC50 (U-251 [9]; [16]) of 9.71 µM, a TGI (NCI-H226) of 4.51 µM and a GI50 (CAKI-1) of 2.48 µM. The CC50 (CAKI-1; [16]) was 23.8 µM, the GI50 (TK-10) was 2.89 µM and the CC50 (TK-10; [16]) was > 100 µM. It also gave a GI50 (HOP-62 [10]) of 2.12 µM, a CC50 (HOP-62 [10]; [16]) of 9.53 µM and a GI50 (DU-145) of 2.62 µM. For the same molecule, the CC50 (DU-145; [16]) was 37.7 µM, the TGI (CCRF-CEM [11]) was 13.4 µM and the GI50 (SR) was 2.95 µM. For the same molecule, the CC50 (SR; [16]) was > 100 µM, the TGI (HOP-62 [12]) was 4.49 µM and the GI50 (HCT-15) was 1.62 µM. For the same molecule, the CC50 (HCT-15; [16]) was 8.9 µM and the TGI (SF-268) was 9.14 µM.

For Cc1ccc(-c2nc3c(c(-c4ccccc4)nn3-c3ccccc3)c(-c3ccc(O)cc3)c2C#N)cc1, the Activity (RS4-11 [13]) was “Active”, the Activity (RS4-11 [14]) was “Active” and the Activity (RS4-11 [15]) was “Active”.
